# Laboratory results from patent US10155749B2, “Substituted benzimidazolium compounds useful in the treatment of respiratory diseases” (Boehringer Ingelheim International GmbH, priority 2015, dated 2018).
# Legend:
# [1] = Permeability in CALU-3 cells; type: in vitro ADME; settings: human, CALU-3 monolayers, pH 7.4, 37° C., 10 μM compound; for Papp A→B at 90 min, 10 μM: apical-to-basal; for Papp B→A at 90 min, 10 μM: basal-to-apical
# Protocol: Permeability in CALU-3 Cells:
# Permeability measurements across polarized, confluent CALU-3 cell monolayers grown on permeable filter supports are used to provide information on the potential of a compound to pass the lung epithelium. Apparent permeability coefficients (Papp) of the compounds across the CALU-3 cell monolayers are measured (pH 7.4, 37° C.) in apical-to-basal (AB) and basal-to-apical (BA) transport direction.
# CALU-3 cells (1-2×10^5 cells/1 cm^2 area) are seeded on filter inserts (Costar transwell polycarbonate filters, 0.4 μm pore size) and cultured (for 10-12 days DMEM) until tight monolayers are formed. Compounds of interest are dissolved in appropriate solvent (DMSO, 10 mM stock solution). Stock solutions are diluted with HTP-4 buffer (128.13 mM NaCl, 5.36 mM KCl, 1 mM MgSO4, 1.8 mM CaCl2, 4.17 mM NaHCO3, 1.19 mM Na2HPO4×7H2O, 0.41 mM NaH2PO4×H2O, 15 mM HEPES, 20 mM glucose, 0.25% BSA, pH 7.4) to prepare the transport solutions (10 μM compound, final DMSO<=0.5%). The transport solution (TL) is applied to the apical or basolateral donor side for measuring A-B or B-A permeability (3 filter replicates), respectively. The receiver side contains the same buffer as the donor side. After 30 min of accommodation, samples are collected at the start t0=0 min and at the end of the experiment tn=90 min from the donor and at 0, 30, 60, and 90 min also from the receiver chamber. Volume removed is […] by HTP-4 buffer. The compound concentration in the samples is measured by HPLC-MS/MS or scintillation counting. The permeability coefficient (Papp) and efflux ratio are calculated according to: Papp [cm/s]=(concentration receiver [nM]*volume receiver [mL]/time interval [sec])*(1/filter area)*(1/donor concentration [nM]).
# [2] = target: T1, ENaC (Epithelial Sodium Channel) (Mus musculus, UniProt Q61180+Q9WU38+Q9WU39); assay: Ussing Chamber assay (short circuit current, amiloride sensitive I_SC) in M-1 cells; type: cell-based; settings: Mouse kidney M-1 cells, apical application, 37° C.
# T1 construct: Mouse kidney M-1 cells were cultivated in DMEM containing 5% FCS and 5 μM dexamethasone; endogenous in cells; host or cells: Mouse kidney M-1 cells
# T1 sequence (Q61180 1-699): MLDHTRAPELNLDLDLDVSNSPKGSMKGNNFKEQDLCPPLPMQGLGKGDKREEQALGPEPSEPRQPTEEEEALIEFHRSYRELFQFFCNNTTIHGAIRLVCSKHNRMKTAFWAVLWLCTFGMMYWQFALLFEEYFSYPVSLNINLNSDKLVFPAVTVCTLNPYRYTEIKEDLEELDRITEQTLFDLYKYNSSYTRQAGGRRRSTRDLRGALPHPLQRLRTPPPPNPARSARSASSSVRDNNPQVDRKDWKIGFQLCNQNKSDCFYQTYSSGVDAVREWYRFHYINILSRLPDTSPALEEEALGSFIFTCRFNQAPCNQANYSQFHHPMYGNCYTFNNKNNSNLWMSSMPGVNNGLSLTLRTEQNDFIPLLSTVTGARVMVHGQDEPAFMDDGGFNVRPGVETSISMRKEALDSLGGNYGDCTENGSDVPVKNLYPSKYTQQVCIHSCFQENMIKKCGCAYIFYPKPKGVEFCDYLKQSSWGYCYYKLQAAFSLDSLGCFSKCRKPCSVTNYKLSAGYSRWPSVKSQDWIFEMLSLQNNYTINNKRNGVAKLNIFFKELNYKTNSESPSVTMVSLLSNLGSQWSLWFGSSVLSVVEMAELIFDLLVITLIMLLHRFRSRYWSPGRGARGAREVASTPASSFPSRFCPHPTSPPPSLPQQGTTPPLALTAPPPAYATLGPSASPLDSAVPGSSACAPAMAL
# T1 sequence (Q9WU38 1-638): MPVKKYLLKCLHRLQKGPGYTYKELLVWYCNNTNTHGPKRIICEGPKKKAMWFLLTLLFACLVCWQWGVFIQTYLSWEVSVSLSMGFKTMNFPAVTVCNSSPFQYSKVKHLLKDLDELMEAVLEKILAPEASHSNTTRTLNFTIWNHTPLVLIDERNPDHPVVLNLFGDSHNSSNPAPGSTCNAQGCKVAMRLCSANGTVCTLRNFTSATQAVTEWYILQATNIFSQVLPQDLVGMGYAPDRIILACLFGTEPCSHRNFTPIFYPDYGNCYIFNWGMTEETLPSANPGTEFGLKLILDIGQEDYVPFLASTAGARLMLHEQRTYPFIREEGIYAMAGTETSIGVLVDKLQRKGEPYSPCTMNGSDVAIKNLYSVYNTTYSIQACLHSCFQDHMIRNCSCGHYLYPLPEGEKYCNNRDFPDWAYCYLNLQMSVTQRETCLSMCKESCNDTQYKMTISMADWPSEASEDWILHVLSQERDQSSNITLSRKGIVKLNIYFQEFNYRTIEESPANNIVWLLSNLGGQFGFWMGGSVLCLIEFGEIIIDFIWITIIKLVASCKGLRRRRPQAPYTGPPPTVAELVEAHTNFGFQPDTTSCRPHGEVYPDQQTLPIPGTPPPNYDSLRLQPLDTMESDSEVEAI
# T1 sequence (Q9WU39 1-655): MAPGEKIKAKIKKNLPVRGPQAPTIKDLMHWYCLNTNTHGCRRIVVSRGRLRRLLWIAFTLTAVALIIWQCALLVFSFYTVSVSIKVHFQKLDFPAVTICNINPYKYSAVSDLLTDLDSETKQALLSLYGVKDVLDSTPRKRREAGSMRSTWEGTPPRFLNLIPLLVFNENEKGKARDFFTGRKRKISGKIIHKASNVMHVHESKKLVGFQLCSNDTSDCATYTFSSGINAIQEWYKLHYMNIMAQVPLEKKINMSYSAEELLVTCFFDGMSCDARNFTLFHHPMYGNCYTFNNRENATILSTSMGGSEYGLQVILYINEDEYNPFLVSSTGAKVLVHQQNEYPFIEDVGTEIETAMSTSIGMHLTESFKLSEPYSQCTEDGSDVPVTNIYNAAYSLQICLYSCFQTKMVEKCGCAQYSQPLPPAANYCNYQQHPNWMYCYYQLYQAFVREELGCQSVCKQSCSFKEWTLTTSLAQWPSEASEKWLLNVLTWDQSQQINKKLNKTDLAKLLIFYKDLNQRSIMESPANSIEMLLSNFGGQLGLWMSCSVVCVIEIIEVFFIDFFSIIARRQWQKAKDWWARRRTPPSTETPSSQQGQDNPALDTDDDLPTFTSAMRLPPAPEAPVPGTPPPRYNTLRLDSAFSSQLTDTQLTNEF
# Protocol: The IC50 values of the example compounds given above were determined in the Ussing Chamber assay.
# Ussing Chamber: Mouse kidney M-1 cells were cultivated in DMEM containing 5% FCS and 5 μM dexamethasone for 10 to 12 days on polyester transwell filters. Filters were inserted into a teflon-coated well-plate which fit into the ussing chamber system. Prior to measurement the medium of M-1 cells was replaced with Caco-2 transport buffer (Invitrogen, Germany). During measurements, the Ussing chamber temperature was kept at 37° C. Short circuit currents (I_sc) were measured in the voltage-clamp mode with the software package Lab View for data acquisition and analysis. The transepithelial electrical resistance (TEER) was determined by the application of voltage steps of ±5 mV every 5 sec. Compounds were administered at a final concentration of 3 μM or at increasing concentrations (1-3-10 μM) to the apical solution. At the end of each experiment the amiloride sensitive I_SC was measured by adding 3 μM amiloride to the apical compartment. Results are expressed as inhibition in percent of the amiloride effect or as IC50.
"Papp A→B at 90 min, 10 μM [1] [×10⁻⁶ cm/s]","Papp B→A at 90 min, 10 μM [1] [×10⁻⁶ cm/s]",IC50 [2] [nM],SMILES
0.09,0.1,3,CCn1c(CNC(=O)c2nc(Cl)c(N)nc2N)[n+](CC)c2cc(C(=O)N3CCOCC3)c(N3CCOCC3)cc21 [Example 5.02]
0.1,0.04,8,CC[n+]1c(CNC(=O)c2nc(Cl)c(N)nc2N)n(CC2CCCCC2)c2cc(OCCOP(=O)(O)CCC[N+](C)(C)C)ccc21 [Example 1.12]
0.08,0.06,1,CCn1c(CNC(=O)c2nc(Cl)c(N)nc2N)[n+](CC)c2ccc(OCCNC(=O)[C@H](C)NC)cc21.Cl.[Cl-] [Example 6.02]
0.1,0.01,1,CC[n+]1c(CNC(=O)c2nc(Cl)c(N)nc2N)n(C[C@H](C)O)c2cc(OCCN(CP(C)(C)=O)C(=O)CC(C)C)ccc21.O=C([O-])C(F)(F)F [Example 1.05]
0.08,0.08,15,CCNC(=O)c1cc2c(cc1OCC(=O)NCCN(C)C)n(CC)c(CNC(=O)c1nc(Cl)c(N)nc1N)[n+]2CC.Cl.[Cl-] [Example 3.17]
0.02,0.03,1,CCn1c(CNC(=O)c2nc(Cl)c(N)nc2N)[n+](CC)c2ccc(C(=O)NCCN(C)C)cc21.Cl.[Cl-] [Example 3.06]
0.3,0.2,19,CC[n+]1c(CNC(=O)c2nc(Cl)c(N)nc2N)n(C[C@H](C)O)c2cc(N(C)C)c(C(=O)N3CCN(C(=O)Cc4ccccn4)CC3)cc21.O=C([O-])C(F)(F)F [Example 4.14]
